Test results published in PubChem BioAssay AID1996.
≈ marks a conversion by molar mass, not a printed value.

Details: buffer; pH 7.4; 200.0 µM

Row | SMILES | solubility kinetic [µg/mL]
1 | CN1C(=O)CN=C(c2ccccc2Cl)c2cc(Br)ccc21 | 51.9 (≈ 143 µM)
2 | CC(=O)Nc1nc2ccc(S(=O)(=O)N3CCCC3)cc2s1 | 3.1 (≈ 9.53 µM)
3 | Cc1ccc(/C=C2/SC(=Nc3ccc(F)cc3)NC2=O)s1 | 0.8 (≈ 2.51 µM)
4 | CN(C)c1ccc(/C=N/OC(=O)Nc2ccccc2)cc1 | 11 (≈ 38.8 µM)
5 | CCOC(=O)C1CCN(C(=O)CN2C(=O)NC(C)(c3ccc4cc(OC)ccc4c3)C2=O)CC1 (centres undefined) | 15.6 (≈ 33.4 µM)
6 | NS(=O)(=O)c1cc(C(=O)N2CCNC(=O)C2)ccc1Cl | > 47.7
7 | Br.COc1ccc(C2=CSC3=NCCN23)cc1OC | > 51.5
8 | Cl.O[C@@H]1CCCC[C@H]1N1CCC(c2ccccc2)CC1 | > 44.4
9 | COc1ccc(CCc2nc(-c3cccs3)no2)cc1 | 2.3 (≈ 8.03 µM)
10 | CC(C)Cc1nnc(NC(=O)C2=COCCO2)s1 | > 40.4
11 | CCOc1ccccc1NC(=O)c1cccc(NC(=O)C2CCCC2)c1 | 13.4 (≈ 38 µM)
12 | CCOCCCNC(=O)/C(C#N)=C/c1cc(C)c(O)c(C)c1 | 7 (≈ 23.2 µM)
13 | NS(=O)(=O)c1ccc(NC(=O)CN2C(=O)c3ccccc3C2=O)cc1 | > 53.9
14 | FCCCOc1ccc(-c2nccc(-c3ccccn3)n2)cc1 | 2.8 (≈ 9.05 µM)
15 | CC1CCN(C(=O)COC(=O)c2ccc3c(c2)OCCO3)CC1 | > 47.9
16 | C=CCNC(=O)c1cc2sccc2n1C | > 33
17 | CC(C)(C)c1ccc(Oc2ccc(NC(=O)c3cccs3)cn2)cc1 | 1.3 (≈ 3.69 µM)
18 | CSCCC(=O)N1CCCC(N(C)CCc2ccccc2)C1 (centres undefined) | 41.7 (≈ 130 µM)
19 | O=C(NC(=O)c1ccccc1)Nc1ccc(-c2cnco2)cc1 | < 0.2
20 | CCN1C(=O)/C(=C\N(C)C)S/C1=N\S(=O)(=O)c1ccccc1 | 49.3 (≈ 145 µM)

Row | SMILES | solubility kinetic [µg/mL]
21 | Cc1cc(C(=O)CSc2nc(N)cc(N)n2)c(C)n1CC1CCCO1 (centres undefined) | > 54.2
22 | CCC(=O)Nc1ccc(S(=O)(=O)Nc2ccccn2)cc1 | > 45.8
23 | CN(C)c1ccc(N2C(=O)CC(c3ccccc3)CC2=O)cc1 | 12.3 (≈ 39.9 µM)
24 | CN1CCN(C(=O)CSc2nc3c(c(=O)n(C)c(=O)n3C)n2C)CC1 | 48.1 (≈ 131 µM)
25 | O=C(Nc1ccccc1N1CCCC1)C1=COCCO1 | > 41.1
26 | Cc1ccccc1Nc1ncc(C#N)c(N)n1 | 31.6 (≈ 140 µM)
27 | CC(CC(=O)O)CC(=O)Nc1nncs1 (centres undefined) | > 34.4
28 | CCCCCn1cnnc1SCC(=O)c1ccc2c(c1)OCO2 | > 50
29 | COc1ccc(NC(=O)c2ccc3[nH]c(C)c(C)c3c2)cc1 | 3.6 (≈ 12.2 µM)
30 | NC(=O)CCn1ccc2ccccc21 | > 28.2
31 | CN(CC(=O)NCc1ccc(F)cc1)Cc1cccc(Cl)c1 | 38.7 (≈ 121 µM)
32 | CS(=O)(=O)c1ccc(C(=O)OCC(=O)NCc2cccs2)cc1[N+](=O)[O-] | 16.1 (≈ 40.4 µM)
33 | CC(c1ccccc1)N1C(=O)/C(=C/c2ccncc2)SC1=S (centres undefined) | 1.3 (≈ 3.98 µM)
34 | Cc1ccc2[nH]c3c(Cl)ncnc3c2c1 | 13.3 (≈ 61.1 µM)
35 | CSc1nccc(NC(=O)c2cccc(Br)c2)n1 | 2.5 (≈ 7.71 µM)
36 | CCCn1c(=O)c(C(=O)NC(C)c2ccccc2)c(O)c2ccccc21 (centres undefined) | 1.3 (≈ 3.71 µM)
37 | COC(=O)c1ccc(NC(=S)NN2CCOCC2)cc1 | > 44.3
38 | COc1ccc2[nH]cc(CCN(C)C)c2c1 | > 32.7
39 | CSc1ccccc1C(=O)N1CCCCC1 | > 35.3
40 | CN(C)c1ccc(CNS(=O)(=O)c2csc(C(N)=O)c2)cc1 | > 50.9

Row | SMILES | solubility kinetic [µg/mL]
41 | Cc1cccc(NCc2ccc(O)c3ncccc23)c1C | > 41.8
42 | CC1(c2ccccc2)NC(=O)N(CC(=O)N2CCN(S(=O)(=O)c3c(F)cccc3F)CC2)C1=O (centres undefined) | 25 (≈ 50.8 µM)
43 | COc1cc(C2NC(=S)NC(c3ccccc3)=C2C(C)=O)ccc1O (centres undefined) | 43.8 (≈ 124 µM)
44 | Cc1ccccc1C(=O)OC1CCN(C)CC1.Cl | > 40.5
45 | CCc1ccccc1NC(=O)CCS(=O)(=O)c1ccc(OC)cc1 | 26.4 (≈ 76 µM)
46 | Cn1cc(CCCC(=O)NCc2ccccc2)c2ccccc21 | 29.2 (≈ 95.3 µM)
47 | O=C(COc1ccc(F)cc1)N1CCC(Cc2ccccc2)CC1 | 18.8 (≈ 57.4 µM)
48 | Oc1ccc2oc3c(c2c1C=NCc1ccncc1)CCCC3 | 16.9 (≈ 55.2 µM)
49 | O=C(Nc1nnc(-c2ccco2)o1)c1cccc(N2C(=O)CCC2=O)c1 | > 52.8
50 | CN(CC(=O)c1c(N)n(C)c(=O)n(C)c1=O)c1ccccc1 | > 45.3
51 | O=C(Nc1nccs1)[C@@H]1CCCN1S(=O)(=O)c1ccc(Cl)cc1 | 31.5 (≈ 84.7 µM)
52 | CCOc1nc(-c2ccccc2)c2cc(Br)ccc2n1 | < 0.4
53 | CC(C)CCNc1nc(N)c([N+](=O)[O-])c(N2CCCCCC2)n1 | 0.5 (≈ 1.55 µM)
54 | CC1(c2ccc(Cl)cc2)NC(=O)N(CC(=O)N2CCc3ccccc32)C1=O (centres undefined) | 1.5 (≈ 3.91 µM)
55 | Cc1ccc(S(=O)(=O)NCC(=O)OCC(=O)N2C(C)CCCC2C)cc1 (centres undefined) | 53.9 (≈ 141 µM)
56 | C#CCOC(=O)Nc1cc(C)n(-c2ccccc2)n1 | > 38.3
57 | CN(C)c1nc(-c2cccnc2)nc(-c2ccccc2)c1C#N | 0.6 (≈ 1.99 µM)
58 | Cc1ccc(Cn2cccc(NS(C)(=O)=O)c2=O)cc1 | > 43.9
59 | Cc1ccc(C)c(OCCCN2CCNCC2)c1.Cl | 39.3
